Here are results for one compound from patent publication US10227663B2, “Non-replicative transduction particles and transduction particle-based reporter systems” (priority 2013, dated 2019).

Converted amounts (≈) assume the structure as drawn. Where two headings read alike, the source gives them in different places.

For test [1], the system named is cefoxitin resistant S. aureus (MRSA strains). The test can be described thus: NRTP-based cefoxitin susceptibility assay (luminescence). Type of test: cell-based, Staphylococcus aureus. The procedure:
(§1) Overnight Culture: For each MRSA strain ([…] and S7) and a MSSA negative control strain (MSSA121), 2 mL of TSB were inoculated with a colony of the strain previously grown on TSA plates. Overnight MRSA cultures included 5 ug/mL cefoxitin. All samples were incubated overnight at 37° C. in a shaking incubator.
(§2) Day Culture: 20 uL of each of the overnight cultures were transferred into a new culture tube containing 2 mL of Growth Media Reagent. The inoculums were then incubated at 37 C with shaking for approximately 1 hr 45 min, until the OD(600 nm) reached 0.1.
a) Wells of a white 96 well assay plate were filled with 100 uL of 2× Transduction Particle Reagent.
b) For each of the day cultures, five wells were then filled with 100 uL of day culture.
c) For each of the day cultures, cefoxitin was added to one well each such that the cefoxitin concentration in the well was at 4, 8, 16, 32, 64, and 128 ug/mL. […]
At the end of 4 hours, the plate was remove from incubator and immediately measured for luminescence on a SpectraMax L that injected 50 μl of the Substrate Reagent and measured luminescence for a period of 1 minute.
The maximum luminescence value after Substrate Reagent addition from each sample was plotted. MSSA sample RLU values were used to determine a Cutoff calculated using the following formula: (Mean MSSA RLU+3*SD MSSA RLU).

Test [2] has the same test system. Nature of the test: MIC determination via plating on TSA plates containing cefoxitin. Type of test: cell-based. As to conditions: Staphylococcus aureus. As to the method:
as §1, §2
a) Each of the day cultures was streaked onto TSA plates containing cefoxitin at 4, 8, 16, 32, 64, and 128 ug/mL.
b) Plates were incubated for 18 hours at 37 C to determine growth.

For the compound `CO[C@@]1(NC(=O)Cc2cccs2)C(=O)N2C(C(=O)O)=C(COC(N)=O)CS[C@@H]21` [cefoxitin], the “Cefoxitin concentration up to which luminescence was above the MSSA RLU cutoff” value in test [1] (MRSA NRS25, 4 hours at 37° C.) is reported as “up to 64 ug/mL”; in test [1] (MRSA S7, 4 hours at 37° C.) it was “up to 32 ug/mL”. Besides, the MIC – broadly, the lowest concentration that inhibits growth of the organism – in test [2] (MRSA / NRS 25, 18 h) was 128 µg/mL (≈ 299 µM); in test [2] (MRSA S7, TSA plates, 18 hours at 37 C, read-out: MIC), 64 µg/mL (≈ 150 µM).
